Measurements published in US6375993B1, “Pomegranate extracts and methods of using thereof” (priority 1999, dated 2002).

Assay: Copper-ions chelating capacity (LDL oxidation at increasing CuSO4)
Assay type: biochemical
Settings: 25 μmol/L of EDTA; TBARS, two hours, 37° C.
Method: In order to examine whether pomegranate juice inhibits LDL oxidation by chelation of metal ions, LDL (100 mg of protein/L) was incubated with 0.2 mL of pomegranate juice/L (0.56 μmol of polyphenols/L) in the presence of increasing concentrations of copper ions. Incubation of LDL with 25 μmol/L of Na2 EDTA served as a positive control, as EDTA is a potent chelator of metal ions. […] At higher copper ion concentrations, EDTA could no longer overcome the pro-oxidative effect of CuSO4.

## O=C([O-])CN(CCN(CC(=O)[O-])CC(=O)O)CC(=O)O.[Na+].[Na+] [EDTA, Na2 EDTA]
  CuSO4 concentration up to which copper ion-induced LDL oxidation was inhibited: up to 40 μmol/L
